Experimental findings from patent US11286242B2 (priority 2018, dated 2022) are described below.

Molecules are shown by their SMILES.

The first assay concerns Phakopsora pachyrhizi. Nature of the assay: Phakopsora pachyrhizi test in soybean, preventive spray. Conditions: preventive spray on soybean plants, inoculated one day after treatment, greenhouse 25° C., 90% relative humidity, read-out: control (efficacy, disease severity rating) compared to the untreated check. In kind it is in vivo. How it is done:
Example 8: Phakopsora pachyrhizi Test in Soybean
Compounds were dissolved in 2% DMSO/Acetone & then mixed with water to the calibrated spray volume of 50 mL and poured into the spray bottles for further applications.
To test the preventive activity of compounds, healthy young soybean plants raised in the greenhouse were sprayed with active compound preparation at the stated application rates inside the spray cabinets using hallowcone nozzles. One day after treatment, the plants were inoculated with spore suspension containing 2.1×10^6 Phakopsora pachyrhizi inoculum. The inoculated plants were then kept in greenhouse chamber at 25° C. temperature & 90% relative humidity for disease expression.
A visual assessment of compound's performance was carried out by rating the disease severity (0-100% scale) on treated plants on 3, 7, 10 & 15 days after application. Efficacy (% control) of the compounds was calculated by comparing the disease rating in the treatment with the one of the untreated control. The sprayed plants were also assessed for compound's plant compatibility by recording symptoms like necrosis, chlorosis & stunting.
Regarding `O=C(N=S1(=O)CCOCC1)c1ccc(-c2noc(C(F)(F)F)n2)cc1` [Compound 58, N-(4-oxido-1,4λ^6-oxathian-4-ylidene)-4-(5-(trifluoromethyl)-1,2,4-oxadiazol-3-yl)benzamide], the pest or weed control at 500 ppm was greater than 90%.
As for `Cc1ccccc1CS(C)(=O)=NC(=O)c1ccc(-c2noc(C(F)(F)F)n2)cc1` (stereo not shown) [Compound 40, N-(methyl(2-methylbenzyl)(oxo)-λ^6-sulfaneylidene)-4-(5-(trifluoromethyl)-1,2,4-oxadiazol-3-yl)benzamide], the pest or weed control at 500 ppm was greater than 90%.
On the same count and under the same terms, next, `CS(=O)(Cc1ccccc1F)=NC(=O)c1ccc(-c2noc(C(F)(F)F)n2)cc1` (stereo not shown) [Compound 38, N-((2-fluorobenzyl)(methyl)(oxo)-λ^6-sulfaneylidene)-4-(5-(trifluoromethyl)-1,2,4-oxadiazol-3-yl)benzamide]: greater than 90%; `CS(=O)(=NC(=O)c1ccc(-c2noc(C(F)(F)F)n2)cc1)c1c(F)cccc1F` (stereo not shown) [Compound 36, N-((2,6-difluorophenyl)(methyl)(oxo)-λ^6-sulfaneylidene)-4-(5-(trifluoromethyl)-1,2,4-oxadiazol-3-yl)benzamide]: greater than 90%; `CS(=O)(Cc1ccc(F)cc1)=Nc1ccc(-c2noc(C(F)(F)F)n2)cc1` (stereo not shown) [Compound 89, (4-fluorobenzyl)(methyl)((4-(5-(trifluoromethyl)-1,2,4-oxadiazol-3-yl)phenyl)imino)-λ^6-sulfanone]: greater than 90%.
On to `CS(=O)(Cc1c(Cl)cccc1Cl)=Nc1ccc(-c2noc(C(F)(F)F)n2)cc1` (stereo not shown) [Compound 91, (2,6-dichlorobenzyl)(methyl)((4-(5-(trifluoromethyl)-1,2,4-oxadiazol-3-yl)phenyl)imino)-λ^6-sulfanone], for which the pest or weed control at 500 ppm is greater than 90%.
For the compound `CS(=O)(=NC(=O)c1ccc(-c2noc(C(F)(F)F)n2)cc1)c1ccc(F)c(F)c1` (stereo not shown) [Compound 57, N-((3,4-difluorophenyl)(methyl)(oxo)-λ^6-sulfaneylidene)-4-(5-(trifluoromethyl)-1,2,4-oxadiazol-3-yl)benzamide], the pest or weed control at 500 ppm was greater than 90%.
With `CS(=O)(=Nc1ccc(-c2noc(C(F)(F)F)n2)cc1)c1ccccc1F` (stereo not shown) [Compound 12, (2-fluorophenyl)(methyl)((4-(5-(trifluoromethyl)-1,2,4-oxadiazol-3-yl)phenyl)imino)-λ^6-sulfanone], the pest or weed control at 500 ppm was greater than 90%.
With `CS(=O)(=NC(=O)c1ccc(-c2noc(C(F)(F)F)n2)cc1)c1ccc(Cl)cc1` (stereo not shown) [Compound 1, N-((4-chlorophenyl)(methyl)(oxo)-λ^6-sulfanylidene)-4-(5-(trifluoromethyl)-1,2,4-oxadiazol-3-yl)benzamide], the pest or weed control at 500 ppm is greater than 90%.
Take `CS(=O)(Cc1c(Cl)cccc1Cl)=NC(=O)c1ccc(-c2noc(C(F)(F)F)n2)cc1` (stereo not shown) [Compound 51, N-((2,6-dichlorobenzyl)(methyl)(oxo)-λ^6-sulfaneylidene)-4-(5-(trifluoromethyl)-1,2,4-oxadiazol-3-yl)benzamide]: the pest or weed control at 500 ppm is greater than 90%.
For the compound `CS(=O)(=NC(=O)c1ccc(-c2noc(C(F)(F)F)n2)cc1)c1ccc(F)cc1` (stereo not shown) [Compound 6, N-((4-fluorophenyl)(methyl)(oxo)-λ^6-sulfanylidene)-4-(5-(trifluoromethyl)-1,2,4-oxadiazol-3-yl)benzamide], the pest or weed control at 500 ppm was greater than 90%.
Turning to `CS(=O)(Cc1ccc(Br)cc1)=Nc1ccc(-c2noc(C(F)(F)F)n2)cc1` (stereo not shown) [Compound 92, (4-bromobenzyl)(methyl)((4-(5-(trifluoromethyl)-1,2,4-oxadiazol-3-yl)phenyl)imino)-λ^6-sulfanone], the pest or weed control at 500 ppm is greater than 90%.
Take `CS(=O)(=NC(=O)c1ccc(-c2noc(C(F)(F)F)n2)cc1)c1ccc(C#N)cc1` (stereo not shown) [Compound 42, N-((4-cyanophenyl)(methyl)(oxo)-λ^6-sulfaneylidene)-4-(5-(trifluoromethyl)-1,2,4-oxadiazol-3-yl)benzamide]: the pest or weed control at 500 ppm was greater than 90%.
For `Cc1nnc(S(C)(=O)=NC(=O)c2ccc(-c3noc(C(F)(F)F)n3)cc2)s1` (stereo not shown) [Compound 54, N-(methyl(5-methyl-1,3,4-thiadiazol-2-yl)(oxo)-λ^6-sulfaneylidene)-4-(5-(trifluoromethyl)-1,2,4-oxadiazol-3-yl)benzamide], the pest or weed control at 500 ppm is greater than 90%.
For `CS(=O)(=NCc1ccc(-c2noc(C(F)(F)F)n2)cc1)c1ccc(Cl)cc1` (stereo not shown) [Compound 28, (4-chlorophenyl)(methyl)((4-(5-(trifluoromethyl)-1,2,4-oxadiazol-3-yl)benzyl)imino)-λ^6-sulfanone], the pest or weed control at 500 ppm is greater than 90%.
`CS(=O)(=NC(=O)c1ccc(-c2noc(C(F)(F)F)n2)cc1)c1ccccn1` (stereo not shown) [Compound 2, N-(methyl(oxo)(pyridin-2-yl)-λ^6-sulfanylidene)-4-(5-(trifluoromethyl)-1,2,4-oxadiazol-3-yl)benzamide]: the pest or weed control at 500 ppm is greater than 90%.
Same read-out and setting: next, `CS(=O)(=NCc1ccc(-c2noc(C(F)(F)F)n2)cc1)c1ccccc1` (stereo not shown) [Compound 26, methyl(phenyl)((4-(5-(trifluoromethyl)-1,2,4-oxadiazol-3-yl)benzyl)imino)-λ^6-sulfanone]: greater than 90%; `CS(=O)(=NC(=O)c1ccc(-c2noc(C(F)(F)F)n2)cc1)c1ccc(C(F)(F)F)cc1` (stereo not shown) [Compound 7, N-(methyl(oxo)(4-(trifluoromethyl)phenyl)-λ^6-sulfanylidene)-4-(5-(trifluoromethyl)-1,2,4-oxadiazol-3-yl)benzamide]: greater than 90%.
In the case of `CS(=O)(=NC(=O)c1ccc(-c2noc(C(F)(F)F)n2)cc1)c1ccccc1` (stereo not shown) [Compound 9, N-(methyl(oxo)(phenyl)-λ^6-sulfanylidene)-4-(5-(trifluoromethyl)-1,2,4-oxadiazol-3-yl)benzamide], the pest or weed control at 500 ppm was greater than 90%.
As to `CS(=O)(=NC(=O)c1ccc(-c2noc(C(F)(F)F)n2)cc1)c1cccc(F)c1` (stereo not shown) [Compound 5, N-((3-fluorophenyl)(methyl)(oxo)-λ^6-sulfanylidene)-4-(5-(trifluoromethyl)-1,2,4-oxadiazol-3-yl)benzamide], the pest or weed control at 500 ppm is greater than 90%.
Still for that read-out and setting: with `CS(=O)(=NCc1ccc(-c2noc(C(F)(F)F)n2)cc1)c1ccc(C(F)(F)F)cc1` (stereo not shown) [Compound 25, methyl((4-(5-(trifluoromethyl)-1,2,4-oxadiazol-3-yl)benzyl)imino)(4-(trifluoromethyl)phenyl)-λ^6-sulfanone] the figure was greater than 90%.
On the same count and under the same terms, with `Cc1csc(S(C)(=O)=NC(=O)c2ccc(-c3noc(C(F)(F)F)n3)cc2)n1` (stereo not shown) [Compound 53, N-(methyl(4-methylthiazol-2-yl)(oxo)-λ^6-sulfaneylidene)-4-(5-(trifluoromethyl)-1,2,4-oxadiazol-3-yl)benzamide] the figure was greater than 90%; with `COc1ccc(S(C)(=O)=NC(=O)c2ccc(-c3noc(C(F)(F)F)n3)cc2)cc1` (stereo not shown) [Compound 10, N-((4-methoxyphenyl)(methyl)(oxo)-λ^6-sulfanylidene)-4-(5-(trifluoromethyl)-1,2,4-oxadiazol-3-yl)benzamide], greater than 90%; with `CS(=O)(=NC(=O)c1ccc(-c2noc(C(F)(F)F)n2)cc1)c1ccncc1` (stereo not shown) [Compound 4, N-(methyl(oxo)(pyridin-4-yl)-λ^6-sulfanylidene)-4-(5-(trifluoromethyl)-1,2,4-oxadiazol-3-yl)benzamide], greater than 90%.
On to `CS(=O)(Cc1ccc(C(F)(F)F)cc1)=NC(=O)c1ccc(-c2noc(C(F)(F)F)n2)cc1` (stereo not shown) [Compound 50, N-(methyl(oxo)(4-(trifluoromethyl)benzyl)-λ^6-sulfaneylidene)-4-(5-(trifluoromethyl)-1,2,4-oxadiazol-3-yl)benzamide], for which the pest or weed control at 500 ppm was greater than 90%.
As to `Cc1ccc(S(C)(=O)=NC(=O)c2ccc(-c3noc(C(F)(F)F)n3)cc2)cc1` (stereo not shown) [Compound 30, N-(methyl(oxo)(p-tolyl)-λ^6-sulfaneylidene)-4-(5-(trifluoromethyl)-1,2,4-oxadiazol-3-yl)benzamide], the pest or weed control at 500 ppm was greater than 90%.
The same measure, in the same setting: next, `CS(=O)(=Nc1ccc(-c2noc(C(F)(F)F)n2)nc1)c1ccccn1` (stereo not shown) [Compound 110, methyl(pyridin-2-yl)((6-(5-(trifluoromethyl)-1,2,4-oxadiazol-3-yl)pyridin-3-yl)imino)-λ^6-sulfanone]: greater than 90%.
Still for that read-out and setting: next, `CS(=O)(Cc1ccc(C#N)cc1)=NC(=O)c1ccc(-c2noc(C(F)(F)F)n2)cc1` (stereo not shown) [Compound 31, N-((4-cyanobenzyl)(methyl)(oxo)-λ^6-sulfaneylidene)-4-(5-(trifluoromethyl)-1,2,4-oxadiazol-3-yl)benzamide]: greater than 90%.
The same measure, in the same setting: next, `CS(=O)(=Nc1ccc(-c2noc(C(F)(F)F)n2)cc1)c1ccc(OC(F)(F)F)cc1` (stereo not shown) [Compound 21, methyl(4-(trifluoromethoxy)phenyl)((4-(5-(trifluoromethyl)-1,2,4-oxadiazol-3-yl)phenyl)imino)-λ^6-sulfanone]: greater than 90%; `CS(=O)(Cc1c(F)cccc1F)=Nc1ccc(-c2noc(C(F)(F)F)n2)cc1` (stereo not shown) [Compound 85, (2,6-difluorobenzyl)(methyl)((4-(5-(trifluoromethyl)-1,2,4-oxadiazol-3-yl)phenyl)imino)-λ^6-sulfanone]: greater than 90%.

The test system of the next assay is Pyricularia oryzae. Nature of the assay: microbe, parasite or virus in culture. Particulars: 168 h, read-out: control compared to the untreated check. In kind it is cell-based.
With `CS(=O)(=Nc1cccc(-c2noc(C(F)(F)F)n2)c1)c1ccccc1` (stereo not shown) [Compound 122, methyl(phenyl)((3-(5-(trifluoromethyl)-1,2,4-oxadiazol-3-yl)phenyl)imino)-λ^6-sulfanone], the inhibition of growth at 300 ppm is greater than 70%.
